Experimental data taken from patent publication US20210253520A1, “POLYMYXIN-BASED COMPOUNDS USEFUL AS ANTIBACTERIAL AGENTS” (UNIVERSITAT DE BARCELONA, priority 2018, published 2021).

Legend:
Swiss CD-1 female mice = assay: Nephrotoxicity study, histopathological scoring of kidney lesions; type: in vivo; set-up: key to Group Score (GS): mean of per-animal summed 0-4 lesion scores; higher = more nephrotoxic; key to Animal Score (AS), Partial AS: sum of 0-4 lesion parameter scores; higher = more nephrotoxic; details: for nephrotoxicity in mice, in words: nephrotoxicity tests carried out in mice, statement of the background
Experimental: Swiss CD-1 female mice weighing approximately 20-24 g (JANVIER Labs) were used, housed in an individually ventilated cage system under specific pathogen-free conditions, and water and food supplied ad libitum. This study plan and the conduct of the study were subjected to review by the Scientific Park of Barcelona Ethical Review Process with the current study procedure Code CEEA (AR) 9377-P2. Mice were administered at a dose of 12 mg/Kg every 2 hours for a total of 6 administrations (total dose 72 mg/Kg), unless otherwise stated. After 20 h, animals were anesthesized with isoflurane, kidneys extracted and prepared for histopathological evaluation, and finally animales were sacrificed. Kidney lesions (tubule dilation, necrosis, tubule casts, cell vacuolization, cell desquamation, and cell swelling) were quantified by microscopical observation (see for instance, Roberts, ACS Infect. Dis., 2015, 1, 568). Each one of these parameters was scored with values from 0 to 4 for each animal, as a global result of observations in kidney. Partial scores have been added up to obtain a final score for each animal (Animal Score, AS). The mean of animal score has been obtained to define the Group Score (GS). The higher the score, the more nephrotoxic a compound is. The nephrotoxicity score has been determined as according to the following table of approximated values: […]

[1] = in vivo; cited from earlier work
E. coli ATCC 25922 = details: comparative examples, extracted from Scientific Reports 5:10558 or WO2017093210A1; cited from earlier work
E. coli MB1410 = details: comparative examples, extracted from Scientific Reports 5:10558 or WO2017093210A1; cited from earlier work
K. pneumoniae MB674 = details: comparative examples, extracted from Scientific Reports 5:10558 or WO2017093210A1; cited from earlier work
P. aeruginosa ATCC 27853 = details: comparative examples, extracted from Scientific Reports 5:10558 or WO2017093210A1; cited from earlier work
P. aeruginosa 36A = details: comparative examples, extracted from Scientific Reports 5:10558 or WO2017093210A1; cited from earlier work
[2] = cited from earlier work
[3] = Table 8, 12 mg/Kg every 2 hours × 6 sc, total 72 mg/Kg, 3 mice
[4] = Table 6, sum of mouse scores, 12 mg/Kg every 2 hours × 6, subcutaneous, total 72 mg/Kg

For “Decanoyl-Dab-Thr-Dab-cyclo(S-S)[Cys-Dab-DPhe-Nle-Dab-Dab-DCys] [compound 2]”, which “AS, Partial AS” value (Swiss CD-1 female mice; [3]) is on record?
The value was 4.

And the “Cell vacuolization, Partial AS” value (Swiss CD-1 female mice; [3])?
The value was 0.

And the “Cloudy swelling, Partial AS” value (Swiss CD-1 female mice; [3])?
The value was 3.

What about the “Group Score (GS)” value (Swiss CD-1 female mice; [3]) of the same substance?
The value was 4.

What about the Mice found dead (Swiss CD-1 female mice; [3]) of the same substance?
The Mice found dead was 2 dead.

What about the “Tubular casts, Partial AS” value (Swiss CD-1 female mice; [3]) of the same substance?
Its value is 0.

What about the “Tubular dilaion, Partial AS” value (Swiss CD-1 female mice; [3]) of the same substance?
The value was 1.

What about the “Tubular necrosis, Partial AS” value (Swiss CD-1 female mice; [3]) of the same substance?
The value was 0.

And the “nephrotoxicity in mice, in words” value (Swiss CD-1 female mice; listed as Decanoyl-Dab-Thr-Dab-ciclo(S—S)[Cys-Dab-DPhe-Nle-Dab-Dab-DCys))?
Its value is “showed toxicity”.

And the “nephrotoxicity in mice, in words” value (Swiss CD-1 female mice; listed as Decanoyl-Dab-Thr-Dab-cyclo(S—S)[Cys-Dab-DPhe-Leu-Dab-Dab-DCys])?
Its value is “showed nephrotoxicity”.

What about the “toxicity in acute toxicity tests, in words” value [1] of the same substance?
Its value is “did not showed toxicity”.

For Polymyxin B [PxB], which Mice found dead (Swiss CD-1 female mice; Table 6, 12 mg/Kg every 2 hours × 6, subcutaneous, total 72 mg/Kg) is on record?
Its Mice found dead is “None”.

What about the “Group Score (GS)” value (Swiss CD-1 female mice; Table 6, mean of animal scores, 12 mg/Kg every 2 hours × 6, subcutaneous, total 72 mg/Kg) of the same substance?
Its value is 3.4.

And the “Cell desquamation, Partial AS” value (Swiss CD-1 female mice; [4])?
The value was 0.

And the “Cell vacuolization, Partial AS” value (Swiss CD-1 female mice; [4])?
The value was 1.

What about the “Cloudy swelling, Partial AS” value (Swiss CD-1 female mice; [4]) of the same substance?
The value was 21.

What about the “Tubular casts, Partial AS” value (Swiss CD-1 female mice; [4]) of the same substance?
Its value is 3.

What about the “Tubular dilation, Partial AS” value (Swiss CD-1 female mice; [4]) of the same substance?
The value was 1.

And the “Tubular necrosis, Partial AS” value (Swiss CD-1 female mice; [4])?
The value was 1.

And the “Animal Score (AS), Partial AS” value (Swiss CD-1 female mice; Table 6, sum over all mice, 12 mg/Kg every 2 hours × 6, subcutaneous, total 72 mg/Kg)?
The value was 27.

And the “AS, Partial AS” value (Swiss CD-1 female mice; [3])?
The value was 7.

And the “Cell vacuolization, Partial AS” value (Swiss CD-1 female mice; [3])?
The value was 0.

What about the “Cloudy swelling, Partial AS” value (Swiss CD-1 female mice; [3]) of the same substance?
Its value is 6.

What about the “Group Score (GS)” value (Swiss CD-1 female mice; [3]) of the same substance?
Its value is 2.3.

And the Mice found dead (Swiss CD-1 female mice; [3])?
Its Mice found dead is “none”.

And the “Tubular casts, Partial AS” value (Swiss CD-1 female mice; [3])?
The value was 0.

And the “Tubular dilaion, Partial AS” value (Swiss CD-1 female mice; [3])?
Its value is 1.

What about the “Tubular necrosis, Partial AS” value (Swiss CD-1 female mice; [3]) of the same substance?
Its value is 0.

And the “antibacterial activity (MIC)” value (E. coli ATCC 25922)?
Its value is 0.25 µg/mL.

And the “antibacterial activity (MIC)” value (E. coli MB1410)?
Its value is 0.5 µg/mL.

What about the “antibacterial activity (MIC)” value (K. pneumoniae MB674) of the same substance?
Its value is 0.25 µg/mL.

What about the “antibacterial activity (MIC)” value (P. aeruginosa ATCC 27853) of the same substance?
Its value is 1 µg/mL.

What about the “antibacterial activity (MIC)” value (P. aeruginosa 36A) of the same substance?
The value was 1 µg/mL.

What about the “kidney concentration relative to serum concentration” value ([2]; after 6 h) of the same substance?
The value was “more than 30 time”.

What about the “period of accumulation in kidneys” value ([2]; long after administration, when barely detectable in serum) of the same substance?
The value was “at least 48 h”.
